Results published in article PMC9636434, “Discovery of small molecule agonists of the Relaxin Family Peptide Receptor 2” (Communications Biology, 2022).
Where “and” joins values, the source holds several entries; their conditions need not be identical. Equal entries are not always repeated.

What was measured:
[1] = biological target: T1, human RXFP1 (Homo sapiens, UniProt Q9HBX9); assay: HTRF cAMP counter-screen in HEK293T cells expressing human RXFP1; assay type: cell-based; settings: for % Eff (cAMP): human RXFP1, experiments (1)-(3)
T1 construct: FLAG (N); expressed in transfected cells
T1 sequence (Q9HBX9 1-757): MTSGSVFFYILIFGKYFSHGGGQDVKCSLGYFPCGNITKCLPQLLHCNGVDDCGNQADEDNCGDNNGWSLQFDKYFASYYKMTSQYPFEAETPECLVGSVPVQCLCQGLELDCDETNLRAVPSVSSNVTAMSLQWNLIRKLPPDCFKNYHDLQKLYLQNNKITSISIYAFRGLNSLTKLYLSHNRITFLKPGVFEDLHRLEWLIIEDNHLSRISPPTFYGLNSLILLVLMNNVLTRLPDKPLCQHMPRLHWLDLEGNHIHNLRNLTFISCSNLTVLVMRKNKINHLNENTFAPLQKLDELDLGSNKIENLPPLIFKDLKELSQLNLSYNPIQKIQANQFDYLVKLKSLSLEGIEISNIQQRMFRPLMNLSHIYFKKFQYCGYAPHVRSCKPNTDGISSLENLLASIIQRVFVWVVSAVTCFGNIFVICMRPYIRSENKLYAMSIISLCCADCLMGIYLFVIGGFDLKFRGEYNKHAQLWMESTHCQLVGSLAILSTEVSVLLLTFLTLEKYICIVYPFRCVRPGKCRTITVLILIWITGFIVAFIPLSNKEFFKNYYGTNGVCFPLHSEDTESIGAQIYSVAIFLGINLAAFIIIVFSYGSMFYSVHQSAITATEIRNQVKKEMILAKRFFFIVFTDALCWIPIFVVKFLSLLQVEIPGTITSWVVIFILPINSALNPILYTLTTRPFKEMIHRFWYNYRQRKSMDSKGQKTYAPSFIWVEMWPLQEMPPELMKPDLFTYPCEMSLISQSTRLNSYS
Experimental: The HTRF Gs dynamic cAMP assay kit (CisBio, Bedford, MA) was used to measure intracellular cAMP accumulation in HEK293T cells (ATCC, Manassas, VA)[56]. […] The cell stock was verified mycoplasma free and authenticated by ATCC. Transient transfection was accomplished by treating cells in a 6-well plate with a mixture of 2 μg plasmid and 6 μL Lipofectamine 2000 (Invitrogen, Waltham, MA) per manufacturer’s protocol and incubating overnight. For cAMP measurement in 96-well format, HEK293T cells stably transfected with human RXFP2 (HEK-RXFP2), human RXFP1 (HEK-RXFP1), mouse Rxfp1 (HEK-Rxfp1) or transiently transfected with human RXFP1-RXFP2 chimeric receptors were seeded between 7500 and 30,000 cells per well, depending on cell line responsiveness, in serum-free DMEM medium and incubated overnight at 37 °C, 5% CO2. After 18 h, cells were treated with a titration of compound, 2 μM forskolin, or DMSO vehicle. Control wells were also treated with a titration of INSL3 (Phoenix Pharmaceuticals, Burlingame, CA) or human recombinant relaxin 2 (Peprotech, Cranbury, NJ). For the RXFP2 antagonist experiment, cells were co-treated with 0.28 μM compound or 30 nM INSL3 and a titration of the INSL3 B dimer antagonist[38],[39]. For the INSL3 allosteric modulation experiment, cells were co-treated with 0.025, 0.0025, or 0.00025 μM of compound and a titration of INSL3. Cells were incubated for 1 h at 37 °C, 5% CO2, and then kit cAMP-d2 and anti-cAMP antibody were added per manufacturer protocol. Plates were incubated for 1 h at room temperature and the signal was read on a CLARIOstar plate reader (BMG Labtech, Ortenberg, Germany) at 665 and 620 nm emission wavelengths. […]
receptors. HTRF cAMP counter-screen of RXFP2 agonists in HEK293T cells expressing a human RXFP1 and b mouse RXFP1. Relaxin 2 was used as positive control for RXFP1 receptor activation. Results are expressed as mean ± SEM of 3

[2] = biological target: RXFP2 (Homo sapiens, UniProt Q8WXD0); assay: INSL3 allosteric modulation experiment, HTRF cAMP, co-treatment 6641 and INSL3; assay type: cell-based; parameters: FLAG (N); expressed in transfected cells; settings: for % Eff: 6641 alone, replicates (1)-(3)
Chain of RXFP2 (Q8WXD0 whole entry): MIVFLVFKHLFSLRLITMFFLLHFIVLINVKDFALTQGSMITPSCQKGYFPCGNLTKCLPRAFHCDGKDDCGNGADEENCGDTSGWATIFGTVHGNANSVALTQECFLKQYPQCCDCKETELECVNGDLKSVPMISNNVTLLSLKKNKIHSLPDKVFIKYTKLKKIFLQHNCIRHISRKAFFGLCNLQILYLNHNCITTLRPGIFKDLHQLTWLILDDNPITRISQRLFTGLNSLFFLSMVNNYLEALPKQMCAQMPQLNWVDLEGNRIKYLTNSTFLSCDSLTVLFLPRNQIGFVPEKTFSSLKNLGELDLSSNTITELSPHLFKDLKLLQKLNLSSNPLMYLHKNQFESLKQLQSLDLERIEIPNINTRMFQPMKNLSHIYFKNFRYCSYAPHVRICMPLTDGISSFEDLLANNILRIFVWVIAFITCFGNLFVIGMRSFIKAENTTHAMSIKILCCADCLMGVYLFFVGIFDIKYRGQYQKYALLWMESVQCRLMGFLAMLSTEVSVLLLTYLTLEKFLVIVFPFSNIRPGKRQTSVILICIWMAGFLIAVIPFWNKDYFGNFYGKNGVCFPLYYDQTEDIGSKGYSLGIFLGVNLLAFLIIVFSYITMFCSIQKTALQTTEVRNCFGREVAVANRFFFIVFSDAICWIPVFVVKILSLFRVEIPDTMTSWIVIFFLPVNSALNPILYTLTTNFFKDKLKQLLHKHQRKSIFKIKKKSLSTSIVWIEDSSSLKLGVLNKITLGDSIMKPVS
Excerpt: We have further analyzed the effect of simultaneous activation of human RXFP2 with 6641 and INSL3 to evaluate possible allosteric modulation of INSL3 cAMP signaling by the small molecule (Supplementary Fig. 8).
The HTRF Gs dynamic cAMP assay kit (CisBio, Bedford, MA) was used to measure intracellular cAMP accumulation in HEK293T cells (ATCC, Manassas, VA)[56]. […] The cell stock was verified mycoplasma free and authenticated by ATCC. Transient transfection was accomplished by treating cells in a 6-well plate with a mixture of 2 μg plasmid and 6 μL Lipofectamine 2000 (Invitrogen, Waltham, MA) per manufacturer’s protocol and incubating overnight. For cAMP measurement in 96-well format, HEK293T cells stably transfected with human RXFP2 (HEK-RXFP2), human RXFP1 (HEK-RXFP1), mouse Rxfp1 (HEK-Rxfp1) or transiently transfected with human RXFP1-RXFP2 chimeric receptors were seeded between 7500 and 30,000 cells per well, depending on cell line responsiveness, in serum-free DMEM medium and incubated overnight at 37 °C, 5% CO2. After 18 h, cells were treated with a titration of compound, 2 μM forskolin, or DMSO vehicle. Control wells were also treated with a titration of INSL3 (Phoenix Pharmaceuticals, Burlingame, CA) or human recombinant relaxin 2 (Peprotech, Cranbury, NJ). For the RXFP2 antagonist experiment, cells were co-treated with 0.28 μM compound or 30 nM INSL3 and a titration of the INSL3 B dimer antagonist[38],[39]. For the INSL3 allosteric modulation experiment, cells were co-treated with 0.025, 0.0025, or 0.00025 μM of compound and a titration of INSL3. Cells were incubated for 1 h at 37 °C, 5% CO2, and then kit cAMP-d2 and anti-cAMP antibody were added per manufacturer protocol. Plates were incubated for 1 h at room temperature and the signal was read on a CLARIOstar plate reader (BMG Labtech, Ortenberg, Germany) at 665 and 620 nm emission wavelengths.
cAMP response in HEK293T cells expressing human RXFP2 was measured by HTRF
assay after treatment with a titration of INSL3 and suboptimal concentrations of 6641.
Results are expressed as mean ± SEM of 3 independent experiments.
(1 picture or pasted object on this page, not shown here)

O=C1Nc2ccc(-c3cc(C(F)(F)F)cc(C(F)(F)F)c3)cc2C(=O)N2CCN(C(=O)COc3ccc(OC(F)(F)F)cc3I)C[C@@H]12 [compound 6641]
activation of human RXFP1 receptor ([1]; HTRF cAMP): do not activate | % Eff (cAMP) ([1]; Log [M] -4.60): -1.3757% and -1.734% and -1.01% | % Eff (cAMP) ([1]; Log [M] -5.60): -1.852% and -1.326% and -2.683% | % Eff (cAMP) ([1]; Log [M] -6.60): -1.88% and -0.1839% and -0.6843% | % Eff (cAMP) ([1]; Log [M] -7.60): -1.108% and 0.09011% and -0.3682% | effect of co-stimulation with INSL3 on cAMP production ([2]; 0.025, 0.0025 or 0.00025 μM compound and titration of INSL3): simple additive effect | % Eff ([2]; Log [M] -4.60): 75.1113% and 97.1676% and 94.1213% | % Eff ([2]; Log [M] -5.60): 93.2943% and 114.987% and 113.554% | % Eff ([2]; Log [M] -6.60): 74.6686% and 120.861% and 97.4942% | % Eff ([2]; Log [M] -7.60): 50.914% and 51.0623% and 52.8348% | % Eff ([2]; Log [M] -8.60): 8.681% and 8.081% and 10.3062% | % Eff ([2]; Log [M] -9.60): 0.2079% and -1.122% and -1.231%
